Assay results: PubChem BioAssay (NCI)
Several values for one entry are separate records, joined by “and”; a condition that tells them apart may be missing. Equal entries are not always repeated.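 Grown in 96-well plates, cells were treated for 48 hours with each compound at five concentrations. Insufficient inhibition: endpoint recorded as highest concentration tested. Here, GI50 denotes the concentration required for 50% inhibition of growth. TGI marks complete inhibition of growth.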

Tests used:
Assay in all cases: NCI anticancer screen, dose series, 48 h
[1] = system: SR leukemia
[2] = system: HCT-116 colon
[3] = system: HL-60(TB) leukemia
[4] = system: SNB-75 CNS
[5] = system: NCI/ADR-RES ovarian
[6] = system: RXF 393 renal
[7] = system: U251 CNS
[8] = system: A549 NSCLC
[9] = system: SK-MEL-5 melanoma
[10] = system: HOP-62 NSCLC

| Structure (SMILES) | TGI [1] | TGI [2] | TGI [3] | TGI [4] | TGI [5] | TGI [6] | TGI [7] | TGI [8] | TGI [9] | TGI [10] | GI50 [1] | GI50 [2] | GI50 [3] | GI50 [4] | GI50 [5] | GI50 [6] | GI50 [7] | GI50 [8] | GI50 [9] | GI50 [10] |
| --- | --- | --- | --- | --- | --- | --- | --- | --- | --- | --- | --- | --- | --- | --- | --- | --- | --- | --- | --- | --- |
| c1cncc(-c2cc(-c3cc(-c4cccnc4)n[nH]3)[nH]n2)c1 | > 100 µM | > 100 µM | > 100 µM | > 100 µM | > 100 µM | > 100 µM | > 100 µM | > 100 µM | > 100000 nM | > 100 µM | – | – | – | – | – | – | – | – | – | – |
| O=C(CSc1nc2sc3c(c2c(=O)n1-c1ccccc1)CCCCC3)N/N=C/c1ccc(F)cc1 | 6.17 µM | 12 µM | > 100 µM | 4.93 µM | 6.72 µM | 7.18 µM | 5.31 µM | 10.8 µM | 9560 nM | 7.39 µM | 357 nM | 2340 nM | > 100000 nM | 1850 nM | 2250 nM | 2390 nM | 1930 nM | 2480 nM | 2930 nM | 2380 nM |
| O=C(/C=C/c1ccc2c(c1)OCO2)c1ccccc1 | 13.9 µM | 14.1 µM | 61.6 µM | 61.9 µM | 62.3 µM | 28.7 µM | 19 µM | 49 µM | 29400 nM | 80.9 µM | 2560 nM | 3740 nM | 17800 nM | 20600 nM | 20600 nM | 14300 nM | 5620 nM | 18700 nM | 15600 nM | 23900 nM |
| Cc1cc2c(cc1C)[n+](=O)c(C(=O)c1cccs1)c(C(F)(F)F)n2[O-] | 8.11 µM | 26.7 µM | 11 µM and 28.8 µM | 18.7 µM | 18.6 µM and 27.2 µM | 50 µM and 29.3 µM | 25.5 µM and 75.8 µM | 50 µM and 21.5 µM | 1780 nM and 2800 nM | 50 µM | 924 nM | 5200 nM | 1960 nM and 2540 nM | 1020 nM | 6400 nM and 3280 nM | 19700 nM and 9210 nM | 6830 nM and 3960 nM | 3270 nM and 5680 nM | 724 nM and 1300 nM | 14600 nM and 2680 nM |
| Cc1cc(Nc2ncc(Cl)c(Nc3ccccc3S(=O)(=O)C(C)C)n2)c(OC(C)C)cc1C1CCNCC1 | 1.58 µM | 2.62 µM | 1.64 µM | 2.44 µM | 3.4 µM | 2.64 µM | 2.72 µM | 2.69 µM | 2730 nM | 2.75 µM | 44.4 nM | 1240 nM | 253 nM | 1200 nM | 1520 nM | 1270 nM | 1390 nM | 1340 nM | 1400 nM | 1400 nM |
| COc1ccc(/C(Cl)=C(\C=O)c2cc(OC)c(OC)c(OC)c2)cc1OC | > 100 µM | > 100 µM | 58.6 µM | > 28.1 µM | 40.2 µM | > 100 µM | > 61.2 µM | > 100 µM | > 100000 nM | > 100 µM | – | – | – | – | – | – | – | – | – | – |
| COc1cc2c3c(n(CCCn4ccnc4)c(=O)c2cc1OC)-c1ccccc1C3=O | 0.0583 µM | 0.153 µM | 0.102 µM | 4.33 µM | 1.86 µM | – | 0.57 µM | 0.413 µM | 86.1 nM | 0.141 µM | 25.2 nM | < 13.5 nM | < 10 nM | 68.1 nM | 223 nM | < 10 nM | < 12.2 nM | < 33.7 nM | < 33.3 nM | < 16.2 nM |
| N#C/C(=C\c1ccc(Cl)cc1)n1nnc2cc(F)c(F)cc21 | > 100 µM | 3.45 µM | 6.82 µM | 3.01 µM | 7.7 µM | 3.11 µM | 3.06 µM | 21.5 µM | 3040 nM | 6.32 µM | 1330 nM | 1770 nM | 2360 nM | 1510 nM | 2360 nM | 1460 nM | 1620 nM | 2700 nM | 1620 nM | 2290 nM |
| O=C(c1cccs1)c1c(C(F)(F)F)n([O-])c2cc(C(F)(F)F)ccc2[n+]1=O | 0.0833 µM | 0.176 µM | 0.135 µM | 1.54 µM | 0.585 µM | 0.351 µM | 0.288 µM | 0.69 µM | 723 nM | 0.337 µM | 17.6 nM | 57.5 nM | < 23.6 nM | 491 nM | 216 nM | 184 nM | 153 nM | 242 nM | 314 nM | 174 nM |
